Data reported in publication PMC5458078, “Global mapping of CARM1 substrates defines enzyme specificity and substrate recognition” (Nature Communications, 2017).
Read-outs that look alike come from different tables or passages of the source.

Columns and labels:
[1] = test system: MCF7 cells; assay: Quantitative nanoLC-MS/MS (TMT) of ADMA-containing peptides, CARM1 KO vs parental; format: cell-based, human; design: Fold change KO/WT: scale not given here
[2] = test system: MCF7 CARM1 KO cells; assay: Quantitative MS of ADMA-containing peptides in MCF7 CARM1 KO cells expressing CARM1 28-608 or CARM1 140-608, and in CARM1 KO; format: cell-based, human
[3] = MCF7, CARM1 KO (KO1-KO3) vs wild type (WT1-WT3)
[4] = CARM1 140-608 versus WT, mean of three replicates (log2)
[5] = KO versus WT, mean of three replicates (log2)
[6] = CARM1 KO vs wild type MCF7 cells, 3 biological replicates each
[7] = CARM1 140-608 versus WT, difference of mean log2 values
[8] = CARM1 KO versus WT, difference of mean log2 values
[9] = CARM1 140-608 vs WT, mean of 3 replicates (log2 scale)
[10] = KO vs WT, mean of 3 replicates (log2 scale)
[11] = MCF7, CARM1 KO vs WT, three biological replicates each
[12] = ratio on log2 scale, mean of 3 replicates
[13] = MCF7, CARM1 knockout vs wild type, n = 3 each
[14] = ADMA-containing peptide, CARM1 knockout (KO) vs wild type (WT) MCF7 cells, 6-plex TMT experiment #1, three biological replicates each, sheet "MCF7"
[15] = difference of log2 means, CARM1 140-608 vs WT
[16] = difference of log2 means, KO vs WT
[17] = ADMA-containing peptide, MCF7, CARM1 knockout (KO1-3) vs wild type (WT1-3), TMT 6-plex experiment #1
[18] = log2 scale ratio, mean of n = 3
[19] = MCF7 CARM1 knockout vs wild type, 3 biological replicates each, values are on log2 scale
[20] = mean, CARM1 140-608 versus WT (log2 scale)
[21] = mean, CARM1 KO versus WT (log2 scale)

QLESLWSDSPAPPGPQAGPPSRPPrYSSSSIPEPFGSR
Fold change KO/WT [1, 3]: -2.771 | CARM1 140-608/WT [2, 4]: -1.865 | KO/WT [2, 5]: -2.771

HASErGHLR
Fold change KO/WT [1, 6]: 1.422 | CARM1 140-608/WT [2, 7]: 0.2697 | KO/WT [2, 8]: 1.422

VFrYSTSLEK
Fold change KO/WT [1, 3]: 0.0856 | CARM1 140-608/WT [2, 9]: 0.01169 | KO/WT [2, 10]: 0.0856

TGALPGPGPLSNPrLGGLPGPGPMSNPR
Fold change KO/WT [1, 11]: -3.491 | CARM1 140-608/WT [2, 12]: -0.9797 | KO/WT [2, 12]: -1.901

ErYLGGIK
Fold change KO/WT [1, 13]: 0.4212 | CARM1 140-608/WT [2, 12]: 0.1385 | KO/WT [2, 12]: 0.4212

RAPAGGSLGrALMR
Fold change KO/WT [1, 14]: 0.1845 | CARM1 140-608/WT [2, 15]: 0.2074 | KO/WT [2, 16]: 0.5402

APPSFPPPAASrGGLGGTR
Fold change KO/WT [1, 17]: 0.1973 | CARM1 140-608/WT [2, 18]: -0.3832 | KO/WT [2, 18]: 0.1973

SGSNWGrGSNMNSGPPR
Fold change KO/WT [1, 6]: 0.3426 | CARM1 140-608/WT [2, 7]: 0.2533 | KO/WT [2, 8]: 0.9633

QLQLQQQrMQLAQK
Fold change KO/WT [1, 19]: -4.395 | CARM1 140-608/WT [2]: -2.654 | KO/WT [2]: -4.55

SAPWNSFLPPPPPMPGPrLGPGKPGLK
Fold change KO/WT [1, 17]: -1.936 | CARM1 140-608/WT [2, 9]: -1.2 | KO/WT [2, 10]: -1.936

GILPMNPrNMMNHSQVGQGIGIPSR
Fold change KO/WT [1, 13]: -1.864 | CARM1 140-608/WT [2, 12]: -1.1659 | KO/WT [2, 12]: -1.864

GrGTLTrGAFVGATAAPGYIAPGYGTPYGYSTAAPAYGLPK
Fold change KO/WT [1, 17]: 0.06714 | CARM1 140-608/WT [2, 18]: -0.05087 | KO/WT [2, 18]: 0.2558

TAAALAPASLTSArMAPALSGANLTSPrVPLSAYER
Fold change KO/WT [1, 17]: -3.829 | CARM1 140-608/WT [2, 18]: -2.654 | KO/WT [2, 18]: -3.829

TPGQINLAQLrLQHMQQQVYAQK
Fold change KO/WT [1, 17]: -4.121 | CARM1 140-608/WT [2, 7]: -3.552 | KO/WT [2, 8]: -5.003

QTGSPGMIYSTrYGSPK
Fold change KO/WT [1, 19]: -3.282 | CARM1 140-608/WT [2, 20]: -2.435 | KO/WT [2, 21]: -3.403

RPPPEHFrRPPPEHFR
Fold change KO/WT [1, 3]: -0.5356 | CARM1 140-608/WT [2, 4]: -0.8789 | KO/WT [2, 5]: -0.5356

GGGSGNFMGrGGNFGGGGGNFGrGGNFGGrGGYGGGGGGSR
Fold change KO/WT [1, 13]: -0.1359 | CARM1 140-608/WT [2, 20]: -0.1884 | KO/WT [2, 21]: -0.008363

LGrLLGIFEQNQDRKHR
Fold change KO/WT [1, 14]: -0.4775 | CARM1 140-608/WT [2, 4]: -0.3444 | KO/WT [2, 5]: -0.4775

ANYNFrGMYNQrYHCPVPK
Fold change KO/WT [1, 17]: -3.002 | CARM1 140-608/WT [2]: -2.05 | KO/WT [2]: -3.002

VSTSGPrAFSSrSYTSGPGSR
Fold change KO/WT [1, 19]: -3.7435 | CARM1 140-608/WT [2, 15]: -3.492 | KO/WT [2, 16]: -3.7435

NAALGPSEPrLALAPVGPrAAMSASSEGPrLALASPrPILAPLCTPEGQK
Fold change KO/WT [1, 19]: -3.912 | CARM1 140-608/WT [2, 20]: -2.352 | KO/WT [2, 21]: -3.912

KPLPLGVrAPLAGPSAAAR
Fold change KO/WT [1, 3]: -2.562 | CARM1 140-608/WT [2, 9]: -2.373 | KO/WT [2, 10]: -2.562

DYFPPGDFPGPPPAPFAMrNVYPPrGFPPYLPPrPGFFPPPPHSEGR
Fold change KO/WT [1, 13]: -2.577 | CARM1 140-608/WT [2, 12]: -0.7489 | KO/WT [2, 12]: -2.577

APAGGSLGrALMR
Fold change KO/WT [1, 14]: -0.2145 | CARM1 140-608/WT [2, 15]: -0.03816 | KO/WT [2, 16]: 0.3587

QLrMQLQQrLQGQQFLNQSrQALELK
Fold change KO/WT [1, 14]: -3.961 | CARM1 140-608/WT [2, 4]: -3.52 | KO/WT [2, 5]: -6.321

CPADNPGLVQAQPrVPLTPTR
Fold change KO/WT [1, 17]: -4.345 | CARM1 140-608/WT [2, 18]: -3.3817 | KO/WT [2, 18]: -4.345

LINFQNHSPKPNGPVLPPHPQQLrYPPNQNIPR
Fold change KO/WT [1, 17]: 0.6311 | CARM1 140-608/WT [2, 7]: 0.3327 | KO/WT [2, 8]: 0.1723

SAPrLNTTNAWGAAPPSLGSQPLYR
Fold change KO/WT [1, 13]: -1.593 | CARM1 140-608/WT [2, 12]: -0.6132 | KO/WT [2, 12]: -1.593

FIQPrPTLNQPPPPLIrPANSMPPR
Fold change KO/WT [1, 3]: -1.957 | CARM1 140-608/WT [2, 9]: 0.9302 | KO/WT [2, 10]: -1.231

CAGFLEPTWLAAPPrLARPPR
Fold change KO/WT [1, 13]: -1.902 | CARM1 140-608/WT [2, 12]: -0.2739 | KO/WT [2, 12]: -1.902

TPTATTSGIrATLTPTVLAPrLPQPPQNPTNIQNFQLPPGMVLVR
Fold change KO/WT [1, 17]: -3.04 | CARM1 140-608/WT [2, 18]: 0.4964 | KO/WT [2, 18]: -3.04

EVYQQQQYGSGGrGNR
Fold change KO/WT [1, 19]: 0.5359 | CARM1 140-608/WT [2, 20]: -0.0375 | KO/WT [2, 21]: 0.5359

VELPTCMYrLPNVHGR
Fold change KO/WT [1, 11]: -2.379 | CARM1 140-608/WT ([2]; CARM1 140-608 vs WT, mean of 3 replicates, log2): -1.403 | KO/WT ([2]; KO vs WT, mean of 3 replicates, log2): -3.7411

EYFIPGTrLPPPTHGPQEYPPPPAVR
Fold change KO/WT [1, 14]: -1.126 | CARM1 140-608/WT [2, 15]: 0.04953 | KO/WT [2, 16]: -1.295
